# Experimental data taken from article PMC2919811 (Analytical biochemistry, 2010).
# Like-named read-outs stand apart in the source and are kept apart here.
# Tests used:
# OATP1B3 [1] = biological target: T1, OATP1B3 (Homo sapiens, UniProt Q9NPD5)
# T1 sequence (Q9NPD5 1-702): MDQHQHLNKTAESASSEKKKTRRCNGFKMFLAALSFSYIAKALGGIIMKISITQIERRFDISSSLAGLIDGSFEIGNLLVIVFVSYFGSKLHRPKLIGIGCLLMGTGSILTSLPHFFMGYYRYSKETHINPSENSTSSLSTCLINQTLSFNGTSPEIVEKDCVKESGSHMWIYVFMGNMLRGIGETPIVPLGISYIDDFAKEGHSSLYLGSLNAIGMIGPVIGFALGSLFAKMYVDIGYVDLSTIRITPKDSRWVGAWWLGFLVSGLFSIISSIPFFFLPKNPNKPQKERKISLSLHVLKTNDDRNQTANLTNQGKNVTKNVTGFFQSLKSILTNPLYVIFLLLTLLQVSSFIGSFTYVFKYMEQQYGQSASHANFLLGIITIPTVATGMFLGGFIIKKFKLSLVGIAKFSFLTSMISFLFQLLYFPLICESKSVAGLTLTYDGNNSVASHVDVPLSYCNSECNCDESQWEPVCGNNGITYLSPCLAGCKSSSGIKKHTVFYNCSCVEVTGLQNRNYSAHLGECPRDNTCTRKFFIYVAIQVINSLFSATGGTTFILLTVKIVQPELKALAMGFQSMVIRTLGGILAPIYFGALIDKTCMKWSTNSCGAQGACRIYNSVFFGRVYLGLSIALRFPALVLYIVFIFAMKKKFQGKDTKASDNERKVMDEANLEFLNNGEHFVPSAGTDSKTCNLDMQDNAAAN
# OATP1B1 [2] = biological target: T2, OATP1B1 (Homo sapiens, UniProt Q9Y6L6); details: read-out: OATP1B1 Km; literature value; cited from earlier work
# T2 sequence (Q9Y6L6 whole entry): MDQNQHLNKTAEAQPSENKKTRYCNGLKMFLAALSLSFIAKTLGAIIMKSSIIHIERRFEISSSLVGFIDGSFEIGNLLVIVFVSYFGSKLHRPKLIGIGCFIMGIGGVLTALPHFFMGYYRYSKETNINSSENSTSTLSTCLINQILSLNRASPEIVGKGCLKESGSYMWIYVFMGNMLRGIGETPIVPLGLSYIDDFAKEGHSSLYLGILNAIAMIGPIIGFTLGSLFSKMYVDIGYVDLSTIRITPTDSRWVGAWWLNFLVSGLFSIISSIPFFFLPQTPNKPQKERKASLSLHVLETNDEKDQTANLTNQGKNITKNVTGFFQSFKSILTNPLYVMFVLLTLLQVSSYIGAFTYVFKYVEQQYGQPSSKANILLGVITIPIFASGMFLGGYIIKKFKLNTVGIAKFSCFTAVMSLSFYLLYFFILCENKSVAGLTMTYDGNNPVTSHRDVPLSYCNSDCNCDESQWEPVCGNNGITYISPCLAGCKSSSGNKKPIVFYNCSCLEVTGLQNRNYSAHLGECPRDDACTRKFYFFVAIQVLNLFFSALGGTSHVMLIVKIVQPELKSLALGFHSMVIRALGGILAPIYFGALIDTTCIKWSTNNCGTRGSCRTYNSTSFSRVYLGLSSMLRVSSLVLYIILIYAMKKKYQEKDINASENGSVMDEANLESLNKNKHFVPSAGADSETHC
# OATP1B3 [3] = biological target: T1, OATP1B3; details: read-out: OATP1B3 Km; literature value; cited from earlier work
# OATP1B3 [4] = biological target: T1, OATP1B3; assay: Cellular accumulation in CHO cells transiently transfected with OATP1B3; details: 2 μM substrate (figure 2 legend), transiently transfected CHO cells
# OATP1B3 [5] = biological target: T1, OATP1B3; assay: Substrate uptake and transport kinetics in CHO cells stably expressing OATP1B3; details: 2 μM substrate, five minute accumulation, CHOvector = 1
# OATP2B1 [6] = biological target: T3, OATP2B1 (Homo sapiens, UniProt O94956); assay: Substrate uptake in CHO cells stably expressing OATP2B1; format: cell-based; details: 2 μM substrate, five minute accumulation, CHOvector = 1
# T3 sequence (O94956 1-709): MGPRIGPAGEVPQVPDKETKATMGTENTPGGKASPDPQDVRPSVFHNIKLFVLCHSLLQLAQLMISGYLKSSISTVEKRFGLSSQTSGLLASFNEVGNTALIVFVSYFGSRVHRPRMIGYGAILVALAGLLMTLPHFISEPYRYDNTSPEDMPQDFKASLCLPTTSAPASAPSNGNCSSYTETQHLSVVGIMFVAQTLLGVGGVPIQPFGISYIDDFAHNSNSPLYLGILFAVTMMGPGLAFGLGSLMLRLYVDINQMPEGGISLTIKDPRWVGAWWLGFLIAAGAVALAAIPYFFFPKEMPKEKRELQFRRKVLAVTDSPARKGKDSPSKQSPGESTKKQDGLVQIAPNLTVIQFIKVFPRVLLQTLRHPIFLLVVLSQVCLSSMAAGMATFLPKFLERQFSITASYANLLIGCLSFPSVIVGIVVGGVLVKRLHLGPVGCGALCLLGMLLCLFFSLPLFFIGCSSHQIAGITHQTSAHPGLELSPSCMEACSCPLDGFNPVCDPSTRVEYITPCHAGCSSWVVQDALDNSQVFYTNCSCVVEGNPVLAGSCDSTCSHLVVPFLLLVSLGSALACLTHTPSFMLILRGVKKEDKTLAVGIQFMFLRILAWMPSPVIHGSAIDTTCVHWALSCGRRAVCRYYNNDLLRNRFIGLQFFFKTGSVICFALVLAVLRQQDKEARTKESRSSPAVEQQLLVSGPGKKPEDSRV
# OATP1B1 [7] = biological target: T2, OATP1B1
# OATP1B1 [8] = biological target: T2, OATP1B1; assay: Substrate uptake and transport kinetics in CHO cells stably expressing OATP1B1; details: 2 μM substrate, five minute accumulation, CHOvector = 1
# OATP2B1 [9] = biological target: T3, OATP2B1; assay: Cellular accumulation in CHO cells transiently transfected with OATP2B1; format: cell-based; details: 2 μM substrate, transiently transfected CHO cells
# OAT3 = biological target: T4, OAT3 (Homo sapiens, UniProt Q8TCC7); format: cell-based; details: 2 μM substrate, transiently transfected CHO cells
# T4 sequence (Q8TCC7 1-542): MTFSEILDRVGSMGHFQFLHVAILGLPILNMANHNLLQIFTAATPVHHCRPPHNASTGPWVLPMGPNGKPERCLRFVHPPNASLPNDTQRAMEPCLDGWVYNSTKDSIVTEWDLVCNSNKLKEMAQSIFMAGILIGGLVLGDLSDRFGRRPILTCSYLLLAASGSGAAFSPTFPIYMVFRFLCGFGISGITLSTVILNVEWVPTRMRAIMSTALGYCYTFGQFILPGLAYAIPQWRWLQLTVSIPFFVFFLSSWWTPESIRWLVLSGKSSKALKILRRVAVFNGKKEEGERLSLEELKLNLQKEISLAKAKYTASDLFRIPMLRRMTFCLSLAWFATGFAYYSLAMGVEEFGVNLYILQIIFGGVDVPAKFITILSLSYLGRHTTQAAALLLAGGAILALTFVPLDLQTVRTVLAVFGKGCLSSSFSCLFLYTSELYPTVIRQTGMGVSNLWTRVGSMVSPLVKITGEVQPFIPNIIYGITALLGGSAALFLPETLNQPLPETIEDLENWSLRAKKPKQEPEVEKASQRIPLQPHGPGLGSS
# OATP1B1 [10] = biological target: T2, OATP1B1; details: 2 μM substrate, transiently transfected CHO cells
# OCT1 = biological target: T5, OCT1 (Homo sapiens, UniProt O15245); assay: Cellular accumulation in CHO cells transiently transfected with OCT1; format: cell-based; details: 10 μM substrate, transiently transfected CHO cells
# T5 sequence (O15245 1-554): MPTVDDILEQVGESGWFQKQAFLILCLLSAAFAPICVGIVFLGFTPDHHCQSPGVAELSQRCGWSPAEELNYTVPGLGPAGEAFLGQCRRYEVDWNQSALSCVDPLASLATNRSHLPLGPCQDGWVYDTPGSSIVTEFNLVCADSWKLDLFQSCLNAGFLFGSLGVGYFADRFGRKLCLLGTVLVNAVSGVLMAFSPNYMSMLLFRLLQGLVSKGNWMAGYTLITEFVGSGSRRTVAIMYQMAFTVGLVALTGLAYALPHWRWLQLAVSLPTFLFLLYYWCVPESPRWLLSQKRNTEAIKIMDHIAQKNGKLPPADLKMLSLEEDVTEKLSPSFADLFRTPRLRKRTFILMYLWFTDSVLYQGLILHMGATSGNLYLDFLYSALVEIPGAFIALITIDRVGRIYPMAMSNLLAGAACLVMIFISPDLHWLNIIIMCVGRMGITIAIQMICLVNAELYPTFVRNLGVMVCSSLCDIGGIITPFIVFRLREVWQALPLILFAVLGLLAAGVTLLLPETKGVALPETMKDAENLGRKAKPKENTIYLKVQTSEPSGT
# OCT2 = biological target: T6, OCT2 (Homo sapiens, UniProt O15244); assay: Cellular accumulation in CHO cells transiently transfected with OCT2; format: cell-based; details: 10 μM substrate, transiently transfected CHO cells
# T6 sequence (O15244 1-555): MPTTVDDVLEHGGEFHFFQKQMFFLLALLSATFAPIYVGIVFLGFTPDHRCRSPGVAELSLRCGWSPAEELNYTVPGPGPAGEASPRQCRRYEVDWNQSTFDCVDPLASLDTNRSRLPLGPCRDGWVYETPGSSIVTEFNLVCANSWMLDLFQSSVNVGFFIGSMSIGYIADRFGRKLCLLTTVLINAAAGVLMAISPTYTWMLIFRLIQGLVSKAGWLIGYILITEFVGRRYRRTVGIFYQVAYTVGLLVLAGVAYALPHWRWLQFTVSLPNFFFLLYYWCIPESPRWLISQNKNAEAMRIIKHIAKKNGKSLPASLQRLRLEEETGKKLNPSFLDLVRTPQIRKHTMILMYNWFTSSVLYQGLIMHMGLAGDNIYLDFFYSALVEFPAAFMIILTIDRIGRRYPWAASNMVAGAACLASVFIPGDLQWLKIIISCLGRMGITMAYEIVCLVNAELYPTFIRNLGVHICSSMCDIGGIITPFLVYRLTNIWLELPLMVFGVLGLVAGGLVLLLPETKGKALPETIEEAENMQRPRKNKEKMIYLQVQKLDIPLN
# NTCP = biological target: T7, NTCP (Homo sapiens, UniProt Q14973); assay: Cellular accumulation in CHO cells transiently transfected with NTCP; format: cell-based; details: 2 μM substrate, transiently transfected CHO cells
# T7 sequence (Q14973 1-349): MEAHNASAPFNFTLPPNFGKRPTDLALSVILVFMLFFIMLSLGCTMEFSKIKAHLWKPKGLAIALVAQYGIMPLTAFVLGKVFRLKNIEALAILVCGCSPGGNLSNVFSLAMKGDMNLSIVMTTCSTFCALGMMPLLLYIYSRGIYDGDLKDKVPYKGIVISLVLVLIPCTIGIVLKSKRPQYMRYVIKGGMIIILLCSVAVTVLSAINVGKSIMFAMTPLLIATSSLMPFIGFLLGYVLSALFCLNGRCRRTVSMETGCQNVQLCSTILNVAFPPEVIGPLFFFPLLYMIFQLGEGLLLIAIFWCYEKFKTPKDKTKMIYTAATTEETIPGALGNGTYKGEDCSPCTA
# [11] = read-out: OATP1B3 IC50 value, inhibition of OATP1B3-mediated transport of 1.25 μM 8-FcA, 10 min, mean ± standard error, two experiments
# [12] = read-out: OATP1B1 IC50 value, inhibition of OATP1B1-mediated transport of […] 8-FcA, 10 min, mean ± standard error, two experiments
IC50 (OATP1B3 [1]) [nM],SMILES,IC50 (OATP1B3 [1]; [11]) [nM],Km (OATP1B1 [2]) [µM],Km (OATP1B3 [3]) [µM],IC50 (OATP1B1 [7]; [12]) [nM],further results
,O=C1OC(c2ccc(O)c(S(=O)(=O)O)c2)(c2ccc(O)c(S(=O)(=O)O)c2)c2c(Br)c(Br)c(Br)c(Br)c21 [bromosulfophthalein],510 ± 20,0.3,0.4,180 ± 20,"increase in activity versus vector control, OATP1B3 (OATP1B3 [4]): 1.26 fold; cellular accumulation relative to control, CHOOATP1B3 (OATP1B3 [5]): 13.8 fold; cellular accumulation relative to control, CHOOATP2B1 (OATP2B1 [6]): 6.6 fold"
,C[C@]12CC[C@@H]3c4ccc(O)cc4CC[C@H]3[C@@H]1CC[C@@H]2O[C@@H]1O[C@H](C(=O)O)[C@@H](O)[C@H](O)[C@H]1O [estradiol-17β-d-glucuronide],23500 ± 1590,5.4,15.8,4880 ± 870,
,C[C@]12CC[C@@H]3c4ccc(OS(=O)(=O)O)cc4CC[C@H]3[C@@H]1CCC2=O [estrone-3-sulfate],20100 ± 1000,,58,53 ± 5,"cellular accumulation relative to control, CHOOATP1B1 (OATP1B1 [8]): 36.1 fold; increase in activity compared to vector control, OATP2B1 (OATP2B1 [9]): 12.5 fold; cellular accumulation relative to control, CHOOATP1B3 (OATP1B3 [5]): 4.1 fold; increase in activity compared to vector control, OAT3 (OAT3): 3.8 fold; increase in activity compared to vector control, OATP1B1 (OATP1B1 [10]): 3.1 fold"
2690 ± 120,COc1ccc(Cl)cc1C(=O)NCCc1ccc(S(=O)(=O)NC(=O)NC2CCCCC2)cc1 [glibenclamide],,,,,
,CN(C)C(=N)N=C(N)N [metformin],,,,,"mean increase in transport over vector control, OCT1 (OCT1): 2.4 fold; mean increase in transport over vector control, OCT2 (OCT2): 24.5 fold"
650 ± 20,CO[C@H]1/C=C/O[C@@]2(C)Oc3c(C)c(O)c4c(O)c(c(/C=N/N5CCN(C)CC5)c(O)c4c3C2=O)NC(=O)/C(C)=C\C=C\[C@H](C)[C@H](O)[C@@H](C)[C@@H](O)[C@@H](C)[C@H](OC(C)=O)[C@@H]1C [rifampicin],,13,,,IC50 (OATP1B1 [7]): 990 ± 70 nM
,C[C@H](CCC(=O)NCCS(=O)(=O)O)[C@H]1CC[C@H]2[C@@H]3[C@H](O)C[C@@H]4C[C@H](O)CC[C@]4(C)[C@H]3C[C@H](O)[C@]12C [taurocholate],,,,,"increase in transport compared to vector control, NTCP (NTCP): 168.9 fold"

SMILES,IC50 (OATP1B3 [1]) [nM],IC50 (OATP1B3 [1]; [11]) [nM],Km (OATP1B1 [2]) [µM],Km (OATP1B3 [3]) [µM],IC50 (OATP1B1 [7]; [12]) [nM],further results
NC(Cc1cc(I)c(Oc2cc(I)c(O)c(I)c2)c(I)c1)C(=O)O (centres unmarked) [thyroxine],2130 ± 170,,3,,,IC50 (OATP1B1 [7]): 3850 ± 880 nM
